In general, IC50 refers to the concentration at which inhibition is half-maximal.

Some results are limits rather than exact numbers.

Sequence of Recombinant human IDO (P14902 whole entry): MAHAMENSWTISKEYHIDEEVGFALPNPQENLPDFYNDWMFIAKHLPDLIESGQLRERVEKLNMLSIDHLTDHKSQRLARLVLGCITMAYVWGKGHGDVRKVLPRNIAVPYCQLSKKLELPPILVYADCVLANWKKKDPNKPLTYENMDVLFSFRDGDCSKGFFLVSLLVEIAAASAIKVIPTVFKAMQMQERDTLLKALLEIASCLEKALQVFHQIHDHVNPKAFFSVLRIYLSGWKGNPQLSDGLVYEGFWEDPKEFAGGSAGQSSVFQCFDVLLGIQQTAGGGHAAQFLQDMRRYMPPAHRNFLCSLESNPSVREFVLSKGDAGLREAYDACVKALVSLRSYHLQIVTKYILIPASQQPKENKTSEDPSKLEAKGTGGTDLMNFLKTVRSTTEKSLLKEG

In the experiment the target is Recombinant human IDO (Homo sapiens, UniProt P14902). The experiment can be described thus: Bridge-IT tryptophan fluorescence assay of human IDO-1 inhibition. The settings on record: recombinant human IDO 7.5 nM, L-tryptophan. The format is biochemical. Put shortly:
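One variant ran L-Trp at 100 μM for 90 min at 37 °C. The other pre-incubated compound for 30 min at 25 °C, then ran 50 μM L-Trp for 60 min at 25 °C.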
For `OC1CCC(F)(CCC2c3c(F)cccc3-c3cncn32)CC1` (single isomer, unassigned) [Compound 16a, 4-fluoro-4-(2-(6-fluoro-5H-imidazo[5,1-a]isoindol-5-yl)ethyl)cyclohexanol], the IC50 is below 100 nM.

Take `OC(CC1c2c(Cl)cccc2-c2cncn21)C1(F)CCCCC1` (single isomer, unassigned) [Compound 83b, 2-[6-chloro-5H-imidazo[4,3-a]isoindol-5-yl]-1-(1-fluorocyclohexyl)ethan-1-ol]: the 50% inhibitory concentration (IC50) fell in the range of 100 to 1000 nM.

Turning to `OC(CC1c2ncccc2-c2cncn21)C1CCOCC1` (single isomer, unassigned) [Compound 92d, 1-(oxan-4-yl)-2-[4,6,9-triazatricyclo[6.4.0.0^[2,6]]dodeca-1(8),2,4,9,11-pentaen-7-yl]ethan-1-ol], the IC50 was above 1000 nM. As for `OC1(C2CCC(F)(CCC3c4ccccc4-c4cncn43)CC2)CC1` (single isomer, unassigned) [Compound 60b, 1-[4-fluoro-4-[2-[5H-imidazo[4,3-a]isoindol-5-yl]ethyl]cyclohexyl]cyclopropan-1-ol], the half-inhibitory concentration (IC50) is above 1000 nM. Regarding `OC(CC1c2nc(C(F)(F)F)ccc2-c2cncn21)C1CCC(F)(F)CC1` (single isomer, unassigned) [Compound 77c, 1-(4,4-difluorocyclohexyl)-2-[10-(trifluoromethyl)-4,6,9-triazatricyclo[6.4.0.0^[2,6]]dodeca-1(8),2,4,9,11-pentaen-7-yl]ethan-1-ol], the IC50 was above 1000 nM. Consider `OC(CC1c2ncccc2-c2cncn21)C1(F)CCC(F)(F)CC1` (single isomer, unassigned) [Compound 87c, 2-[4,6,9-triazatricyclo[6.4.0.0^[2,6]]dodeca-1(8),2,4,9,11-pentaen-7-yl]-1-(1,4,4-trifluorocyclohexyl)ethan-1-ol], for which the IC50 is above 1000 nM.

For `FC1(CCC2c3ccccc3-c3cncn32)CCOCC1` (single isomer, unassigned) [Compound 94b, 5-[2-(4-fluorooxan-4-yl)ethyl]-5H-imidazo[4,3-a]isoindole], the concentration for half-maximal inhibition (IC50) is below 100 nM. In the case of `OC(CC1c2nc(OC3CC3)ccc2-c2cncn21)C1CCC(F)(F)CC1` (single isomer, unassigned) [Compound 69a, 2-[10-cyclopropoxy-4,6,9-triazatricyclo[6.4.0.0^[2,6]]dodeca-1(8),2,4,9,11-pentaen-7-yl]-1-(4,4-difluorocyclohexyl)ethan-1-ol] it was 100 to 1000 nM; in that of `OC(CC1c2c(ccnc2F)-c2cncn21)C1CCCCC1` (stereo not drawn) [Compound 2a, 1-Cyclohexyl-2-[9-fluoro-4,6,10-triazatricyclo[6.4.0.0^[2,6]]dodeca-1(8),2,4,9,11-pentaen-7-yl]ethan-1-ol], above 1000 nM; in that of `OC1CCC(F)(CCC2c3c(F)ccc(F)c3-c3cncn32)CC1` (single isomer, unassigned) [Compound 38b, 4-(2-(6,9-difluoro-5H-imidazo[5,1-a]isoindol-5-yl)ethyl)-4-fluorocyclohexanol], 100 to 1000 nM. In the case of `OC(CC1c2nc(C(F)(F)F)ccc2-c2cncn21)C1CCC(F)(F)CC1` (single isomer, unassigned) [Compound 77b, 1-(4,4-difluorocyclohexyl)-2-[10-(trifluoromethyl)-4,6,9-triazatricyclo[6.4.0.0^[2,6]]dodeca-1(8),2,4,9,11-pentaen-7-yl]ethan-1-ol] it was above 1000 nM; in that of `FC(CC1c2ncccc2-c2cncn21)C1CCCCC1` (single isomer, unassigned) [Compound 97a, 7-[2-cyclohexyl-2-fluoroethyl]-4,6,9-triazatricyclo[6.4.0.0^[2,6]]dodeca-1(8),2,4,9,11-pentaene], above 1000 nM; in that of `COc1cccc2c1-c1cncn1C2CCC1(F)CCC(O)CC1` (stereo not drawn) [Compound 41a, 4-fluoro-4-(2-(9-methoxy-5H-imidazo[5,1-a]isoindol-5-yl)ethyl)cyclohexanol], above 1000 nM. For `OC1(C2CCC(F)(CCC3c4ccccc4-c4cncn43)CC2)CC1` (single isomer, unassigned) [Compound 60d, 1-[4-fluoro-4-[2-[5H-imidazo[4,3-a]isoindol-5-yl]ethyl]cyclohexyl]cyclopropan-1-ol] the value was below 100 nM; for `OC(CC1c2ncccc2-c2cncn21)C1CCC2(CC1)CC2` (single isomer, unassigned) [Compound 29b, 1-[spiro[2.5]octan-6-yl]-2-[4,6,9-triazatricyclo[6.4.0.0^[2,6]]dodeca-1(8),2,4,9,11-pentaen-7-yl]ethan-1-ol], above 1000 nM; for `FC1(CCC2c3cnccc3-c3cncn32)CCCCC1` (single isomer, unassigned) [Compound 10b, 7-[2-(1-fluorocyclohexyl)ethyl]-4,6,10-triazatricyclo[6.4.0.0^[2,6]]dodeca-1(8),2,4,9,11-pentaene], above 1000 nM.

In the case of `FC1(CCC2c3c(Cl)cccc3-c3cncn32)CCCCC1` (single isomer, unassigned) [Compound 70b, 6-chloro-5-[2-(1-fluorocyclohexyl)ethyl]-5H-imidazo[4,3-a]isoindole], the IC50 lay within 100 to 1000 nM.

As to `COc1ccc2c(n1)C(CC(O)C1CCC(F)(F)CC1)n1cncc1-2` (stereo not drawn) [Compound 33a, 1-(4,4-difluorocyclohexyl)-2-[10-methoxy-4,6,9-triazatricyclo[6.4.0.0^[2,6]]dodeca-1(8),2,4,9,11-pentaen-7-yl]ethan-1-ol], the IC50 fell in the range of 100 to 1000 nM.

On to `O=C(C1CCC(F)(CCC2c3c(Cl)cccc3-c3cncn32)CC1)N1CCCCC1` (single isomer, unassigned) [Compound 115c], for which the IC50 lay within 100 to 1000 nM. For the compound `COc1ccc2c(n1)C(CCC1(F)CCC3(CC1)CC3)n1cncc1-2` (single isomer, unassigned) [Compound 54a, 7-(2-{6-fluorospiro[2.5]octan-6-yl}ethyl)-10-methoxy-4,6,9-triazatricyclo[6.4.0.0^[2,6]]dodeca-1(8),2,4,9,11-pentaene], the 50% inhibitory concentration (IC50) is below 100 nM. With `OC1(C2CCC(F)(CCC3c4c(F)cccc4-c4cncn43)CC2)CC1` (mixture of isomers) [Compound 85a, 1-[4-fluoro-4-(2-[6-fluoro-5H-imidazo[4,3-a]isoindol-5-yl]ethyl)cyclohexyl]cyclopropan-1-ol], the IC50 is below 100 nM. For `OC1CCC(F)(CCC2c3cc(F)ncc3-c3cncn32)CC1` (single isomer, unassigned) [Compound 58c, 4-fluoro-4-[2-[10-fluoro-4,6,11-triazatricyclo[6.4.0.0^[2,6]]dodeca-1(8),2,4,9,11-pentaen-7-yl]ethyl]cyclohexan-1-ol], the half-maximal inhibitory concentration (IC50) was above 1000 nM.

Consider `NC(=O)C1CCC(F)(CCC2c3ccccc3-c3cncn32)CC1` (single isomer, unassigned) [Compound 79b, 4-fluoro-4-[2-[5H-imidazo[4,3-a]isoindol-5-yl]ethyl]cyclohexane-1-carboxamide], for which the IC50 is above 1000 nM. On to `OCC1CCC(F)(CCC2c3ccccc3-c3cncn32)CC1` (single isomer, unassigned) [Compound 59c, [4-fluoro-4-[2-[5H-imidazo[4,3-a]isoindol-5-yl]ethyl]cyclohexyl]methanol], for which the half-maximal inhibitory concentration (IC50) is below 100 nM.

With `OC(CC1c2ncccc2-c2cncn21)C1(F)CCC(F)(F)CC1` (single isomer, unassigned) [Compound 87d, 2-[4,6,9-triazatricyclo[6.4.0.0^[2,6]]dodeca-1(8),2,4,9,11-pentaen-7-yl]-1-(1,4,4-trifluorocyclohexyl)ethan-1-ol], the IC50 is 100 to 1000 nM. For `NC(=O)CC1CCC(F)(CCC2c3c(Cl)cccc3-c3cncn32)CC1` (single isomer, unassigned) [Compound 113c, 2-[4-[2-[6-chloro-5H-imidazo[4,3-a]isoindol-5-yl]ethyl]-4-fluorocyclohexyl]acetamide] the value was above 1000 nM; for `OC1CCC(C(O)CC2c3ncccc3-c3cncn32)CC1` (stereo not drawn) [Compound 6a, 4-[1-hydroxy-2-[4,6,9-triazatricyclo[6.4.0.0^[2,6]]dodeca-1(8),2,4,9,11-pentaen-7-yl]ethyl]cyclohexan-1-ol], above 1000 nM; for `NC(CC1c2ncccc2-c2cncn21)C1CCCCC1` (stereo not drawn) [Compound 21a, 1-cyclohexyl-2-[4,6,9-triazatricyclo[6.4.0.0^[2,6]]dodeca-1(8),2,4,9,11-pentaen-7-yl]ethan-1-amine], above 1000 nM.

As to `OC(CC1c2nc(F)ccc2-c2cncn21)C1CCC(F)(F)CC1` (single isomer, unassigned) [Compound 26b, 1-(4,4-difluorocyclohexyl)-2-[10-fluoro-4,6,9-triazatricyclo[6.4.0.0^[2,6]]dodeca-1(8),2,4,9,11-pentaen-7-yl]ethan-1-ol], the IC50 is 100 to 1000 nM. As for `FC1(CCC2c3ncccc3-c3cncn32)CCC2(CC1)CC2` (single isomer, unassigned) [Compound 30b, 7-(2-{6-fluorospiro[2.5]octan-6-yl}ethyl)-4,6,9-triazatricyclo[6.4.0.0^[2,6]]dodeca-1(8),2,4,9,11-pentaene], the IC50 was above 1000 nM. Consider `NC(=O)CC1CCC(F)(CCC2c3c(Cl)cccc3-c3cncn32)CC1` (single isomer, unassigned) [Compound 113b, 2-[4-[2-[6-chloro-5H-imidazo[4,3-a]isoindol-5-yl]ethyl]-4-fluorocyclohexyl]acetamide], for which the IC50 was above 1000 nM. As to `OCC1CCC(F)(CCC2c3c(Cl)cccc3-c3cncn32)CC1` (mixture of isomers) [Compound 105b, [4-[2-[6-chloro-5H-imidazo[4,3-a]isoindol-5-yl]ethyl]-4-fluorocyclohexyl]methanol], the half-maximal inhibitory concentration (IC50) is above 1000 nM.

For the compound `CC1(C)CCC(F)(CCC2c3c(F)cccc3-c3cncn32)CC1` (single isomer, unassigned) [Compound 23a, 6-fluoro-5-(2-(1-fluoro-4,4-dimethylcyclohexyl)ethyl)-5H-imidazo[5,1-a]isoindole], the IC50 was above 1000 nM.

(Values after patent US9771370B2, “Compounds for the inhibition of indoleamine-2,3-dioxygenase” (Merck Patent GmbH, priority 2014, dated 2017).)
